# Experimental data as given in US8410151B2, “Aminomethyl benzene derivatives” (Actelion Pharmaceuticals Ltd, priority 2009, dated 2013).
# Test system: circulating lymphocytes
# Assay: Assessment of in vivo efficacy: circulating lymphocytes after oral administration
# Set-up: species or system normotensive male Wistar rats
# Conditions: 3 h after oral administration of 10 mg/kg, male Wistar rats, compared to vehicle-treated group
# Description: The efficacy of the compounds of formula (I) is assessed by measuring the circulating lymphocytes after oral administration of 3 to 30 mg/kg of a compound of formula (I) to normotensive male Wistar rats. The animals are housed in climate-controlled conditions with a 12 h-light/dark cycle, and have free access to normal rat chow and drinking water.
# Blood is collected before and 3, 6 and 24 h after drug administration. Full blood is subjected to hematology using Advia Hematology system (Bayer Diagnostics, Zurich, Switzerland).
# All data are presented as mean±SEM. Statistical analyses are performed by analysis of variance (ANOVA) using Statistica (StatSoft) and the Student-Newman-Keuls procedure for multiple comparisons. The null hypothesis is rejected when p<0.05.
row,Molecule,Lymphocyte counts [%]
1,"CCc1cc(CN(C)CC(C)C)cc(-c2nc(-c3cc(C)c(OC[C@@H](O)CNC(=O)CO)c(CC)c3)no2)c1 [Example 53, N—{(S)-3-[2-ethyl-4-(5-{3-ethyl-5-[(isobutyl-methyl-amino)-methyl]-phenyl}-[1,2,4]oxadiazol-3-yl)-6-methyl-phenoxy]-2-hydroxy-propyl}-2-hydroxy-acetamide]",−61.0

# Target: recombinant human S1P1 receptor (Homo sapiens, UniProt P21453)
# Sequence (P21453 whole entry): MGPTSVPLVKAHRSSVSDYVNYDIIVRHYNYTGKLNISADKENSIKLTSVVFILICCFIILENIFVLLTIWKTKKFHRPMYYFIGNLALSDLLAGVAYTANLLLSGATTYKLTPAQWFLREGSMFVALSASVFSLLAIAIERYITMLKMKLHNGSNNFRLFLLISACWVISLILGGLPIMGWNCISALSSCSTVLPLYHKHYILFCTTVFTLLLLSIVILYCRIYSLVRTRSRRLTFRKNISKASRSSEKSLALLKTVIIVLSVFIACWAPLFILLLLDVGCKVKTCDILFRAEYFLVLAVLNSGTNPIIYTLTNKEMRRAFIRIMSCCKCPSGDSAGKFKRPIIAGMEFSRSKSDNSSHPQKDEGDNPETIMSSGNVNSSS
# Assay: GTPγS assay to determine EC50 values
# Format: biochemical
# Conditions: 35S-GTPγS binding, CHO membranes, human S1P1
# Description: GTPγS binding assays are performed in 96 well microtiter plates (Nunc, 442587) in a final volume of 200 μl, using membrane preparations of CHO cells expressing recombinant human S1P1 receptor. Assay conditions are 20 mM Hepes (Fluka, 54461), 100 mM NaCl (Fluka, 71378), 5 mM MgCl2 (Fluka, 63064), 0.1% BSA (Calbiochem, 126609), 1 μM GDP (Sigma, G-7127), 2.5% DMSO (Fluka, 41644), 50 pM ^355-GTPγS (Amersham Biosciences, SJ1320). The pH is 7.4. Test compounds are dissolved and diluted in 100% DMSO and pre-incubated at room temperature for 30 min in 150 μl of the above assay buffer, in the absence of ^355-GTPγS. After addition of 50 μl of ^355-GTPγS, the assay is incubated for 1 h at rt. The assay is terminated by transfer of the reaction mixture to a Multiscreen plate (Millipore, MAHFC1H60) using a cell harvester from Packard Biosciences, and the plates are washed with ice-cold 10 mM Na2HPO4/NaH2PO4 (70%/30%), dried, sealed at the bottom and, after addition of 25 μl MicroScint20 (Packard Biosciences, order #6013621), sealed on the top. Membrane-bound ^35S-GTPγS is measured with a TopCount from Packard Biosciences.
# EC50 is the concentration of agonist inducing 50% of the maximal specific ^35S-GTPγS binding. Specific binding is determined by subtracting non-specific binding from maximal binding. Maximal binding is the amount of cpm bound to the Multiscreen plate in the presence of 10 μM of S1P. Non-specific binding is the amount of binding in the absence of an agonist in the assay.
row,EC50 [nM],Molecule
1,> 10000,CNCc1cccc(-c2nc(-c3cc(C)c(OCC(O)CNC(=O)CO)c(C)c3)no2)c1 (racemic) [Example 1]

# Same assay, conditions: 35S-GTPγS binding, membrane preparations of CHO cells expressing recombinant human S1P1 receptor
row,Molecule,EC50 [nM]
1,"CCCCN(CC)Cc1cc(C)cc(-c2nc(-c3cc(C)c(OC[C@@H](O)CNC(=O)CO)c(CC)c3)no2)c1 [Example 21, N—{(S)-3-[4-(5-{3-[(butyl-ethyl-amino)-methyl]-5-methyl-phenyl}-[1,2,4]oxadiazol-3-yl)-2-ethyl-6-methyl-phenoxy]-2-hydroxy-propyl}-2-hydroxy-acetamide]",5.6
2,"CCCCN(C)Cc1ccc(-c2nc(-c3cc(C)c(OC[C@@H](O)CNC(=O)CO)c(CC)c3)no2)cc1C [Example 42, N—{(S)-3-[4-(5-{4-[(butyl-methyl-amino)-methyl]-3-methyl-phenyl}-[1,2,4]oxadiazol-3-yl)-2-ethyl-6-methyl-phenoxy]-2-hydroxy-propyl}-2-hydroxy-acetamide]",5.8
3,"CCc1cc(CN(C)C)cc(-c2nc(-c3cc(C)c(OC[C@@H](O)CNC(=O)CO)c(CC)c3)no2)c1 [Example 49, N—((S)-3-{4-[5-(3-dimethylaminomethyl-5-ethyl-phenyl)-[1,2,4]oxadiazol-3-yl]-2-ethyl-6-methyl-phenoxy}-2-hydroxy-propyl)-2-hydroxy-acetamide]",3.7
4,"CCc1cc(CN(C)CC)cc(-c2nc(-c3cc(C)c(OC[C@@H](O)CNC(=O)CO)c(CC)c3)no2)c1 [Example 50, N—{(S)-3-[2-ethyl-4-(5-{3-ethyl-5-[(ethyl-methyl-amino)-methyl]-phenyl}-[1,2,4]oxadiazol-3-yl)-6-methyl-phenoxy]-2-hydroxy-propyl}-2-hydroxy-acetamide]",5.3
5,"CCCc1cc(CNCC(C)C)cc(-c2nc(-c3cc(C)c(OC[C@@H](O)CNC(=O)CO)c(CC)c3)no2)c1 [Example 58, N—[(S)-3-(2-ethyl-4-{5-[3-(isobutylamino-methyl)-5-propyl-phenyl]-[1,2,4]oxadiazol-3-yl}-6-methyl-phenoxy)-2-hydroxy-propyl]-2-hydroxy-acetamide]",8.4
6,"CCc1cc(-c2noc(-c3cc(CN4CCCC4)cc(C(C)C)c3)n2)cc(C)c1OC[C@@H](O)CNC(=O)CO [Example 75, N—((S)-3-{2-ethyl-4-[5-(3-isopropyl-5-pyrrolidin-1-ylmethyl-phenyl)-[1,2,4]oxadiazol-3-yl]-6-methyl-phenoxy}-2-hydroxy-propyl)-2-hydroxy-acetamide]",7.2
7,CCc1ccc(-c2nc(-c3cc(C)c(OC[C@@H](O)CNC(=O)CO)c(CC)c3)no2)cc1CN(C)C [Example 89],22
8,"CCc1cc(-c2nc(-c3cc(C)c(OC[C@@H](O)CNC(=O)CO)c(CC)c3)no2)ccc1CN1CCCC1 [Example 105, N—((S)-3-{2-ethyl-4-[5-(3-ethyl-4-pyrrolidin-1-ylmethyl-phenyl)-[1,2,4]oxadiazol-3-yl]-6-methyl-phenoxy}-2-hydroxy-propyl)-2-hydroxy-acetamide]",8
9,"N-(3-{4-[5-(4-dimethylaminomethyl-3-methyl-phenyl)-[1,2,4]oxadiazol-3-yl]-2,6-dimethyl-phenoxy}-2-hydroxy-propyl)-2-hydroxy-acetamide [Example 127]",8.5

# Continued, values first:
row,EC50 [nM],Molecule
1,2.2,"CCc1cc(-c2noc(-c3cc(C)cc(CN(C)CC(C)C)c3)n2)cc(C)c1OC[C@@H](O)CNC(=O)CO [Example 19, N—{(S)-3-[2-ethyl-4-(5-{3-[(isobutyl-methyl-amino)-methyl]-5-methyl-phenyl}-[1,2,4]oxadiazol-3-yl)-6-methyl-phenoxy]-2-hydroxy-propyl}-2-hydroxy-acetamide]"
2,2.4,"CCCN(C)Cc1cc(CC)cc(-c2nc(-c3cc(C)c(OC[C@@H](O)CNC(=O)CO)c(CC)c3)no2)c1 [Example 51, N—{(S)-3-[2-ethyl-4-(5-{3-ethyl-5-[(methyl-propyl-amino)-methyl]-phenyl}-[1,2,4]oxadiazol-3-yl)-6-methyl-phenoxy]-2-hydroxy-propyl}-2-hydroxy-acetamide]"
3,2,"CCCCN(C)Cc1cc(CC)cc(-c2nc(-c3cc(C)c(OC[C@@H](O)CNC(=O)CO)c(CC)c3)no2)c1 [Example 52, N—{(S)-3-[4-(5-{3-[(butyl-methyl-amino)-methyl]-5-ethyl-phenyl}-[1,2,4]oxadiazol-3-yl)-2-ethyl-6-methyl-phenoxy]-2-hydroxy-propyl}-2-hydroxy-acetamide]"
4,3.6,"CCCc1cc(CN(C)CCC)cc(-c2nc(-c3cc(C)c(OC[C@@H](O)CNC(=O)CO)c(CC)c3)no2)c1 [Example 61, N—{(S)-3-[2-ethyl-6-methyl-4-(5-{3-[(methyl-propyl-amino)-methyl]-5-propyl-phenyl}-[1,2,4]oxadiazol-3-yl)-phenoxy]-2-hydroxy-propyl}-2-hydroxy-acetamide]"
5,3.1,"CCCCN(C)Cc1cc(CCC)cc(-c2nc(-c3cc(C)c(OC[C@@H](O)CNC(=O)CO)c(CC)c3)no2)c1 [Example 62, N—{(S)-3-[4-(5-{3-[(butyl-methyl-amino)-methyl]-5-propyl-phenyl}-[1,2,4]oxadiazol-3-yl)-2-ethyl-6-methyl-phenoxy]-2-hydroxy-propyl}-2-hydroxy-acetamide]"
6,2.1,"CCCN(C)Cc1cc(-c2nc(-c3cc(C)c(OC[C@@H](O)CNC(=O)CO)c(CC)c3)no2)cc(C(C)C)c1 [Example 71, N—{(S)-3-[2-ethyl-4-(5-{3-isopropyl-5-[(methyl-propyl-amino)-methyl]-phenyl}-[1,2,4]oxadiazol-3-yl)-6-methyl-phenoxy]-2-hydroxy-propyl}-2-hydroxy-acetamide]"
7,2.3,"CCCCN(C)Cc1cc(-c2nc(-c3cc(C)c(OC[C@@H](O)CNC(=O)CO)c(CC)c3)no2)cc(C(C)C)c1 [Example 72, N—{(S)-3-[4-(5-{3-[(butyl-methyl-amino)-methyl]-5-isopropyl-phenyl}-[1,2,4]oxadiazol-3-yl)-2-ethyl-6-methyl-phenoxy]-2-hydroxy-propyl}-2-hydroxy-acetamide]"
8,2,"CCc1cc(-c2noc(-c3cc(CN(C)CC(C)C)cc(C(C)C)c3)n2)cc(C)c1OC[C@@H](O)CNC(=O)CO [Example 73, N—{(S)-3-[2-ethyl-4-(5-{3-[(isobutyl-methyl-amino)-methyl]-5-isopropyl-phenyl}-[1,2,4]oxadiazol-3-yl)-6-methyl-phenoxy]-2-hydroxy-propyl}-2-hydroxy-acetamide]"
9,1.6,"CCc1cc(-c2nc(-c3cc(C)c(OC[C@@H](O)CNC(=O)CO)c(CC)c3)no2)ccc1CN(C)CC [Example 100, N—{(S)-3-[2-ethyl-4-(5-{3-ethyl-4-[(ethyl-methyl-amino)-methyl]-phenyl}-[1,2,4]oxadiazol-3-yl)-6-methyl-phenoxy]-2-hydroxy-propyl}-2-hydroxy-acetamide]"
10,2,"CCN(C)Cc1cc(C)cc(-c2nc(-c3cc(C)c(OC[C@@H](O)CO)c(Cl)c3)no2)c1 [Example 144, (S)-3-[2-chloro-4-(5-{3-[(ethyl-methyl-amino)-methyl]-5-methyl-phenyl}-[1,2,4]oxadiazol-3-yl)-6-methyl-phenoxy]-propane-1,2-diol]"
11,2,"CCN(C)Cc1cc(C)cc(-c2nc(-c3cc(C)c(OC[C@@H](O)CNC(=O)CO)c(C)c3)no2)c1 [Example 147, N—{(S)-3-[4-(5-{3-[(ethyl-methyl-amino)-methyl]-5-methyl-phenyl}-[1,2,4]oxadiazol-3-yl)-2,6-dimethyl-phenoxy]-2-hydroxy-propyl}-2-hydroxy-acetamide]"
12,1.3,"CCN(C)Cc1cc(C)cc(-c2nc(-c3cc(C)c(OC[C@@H](O)CNC(=O)CO)c(Cl)c3)no2)c1 [Example 148, N—{(S)-3-[2-chloro-4-(5-{3-[(ethyl-methyl-amino)-methyl]-5-methyl-phenyl}-[1,2,4]oxadiazol-3-yl)-6-methyl-phenoxy]-2-hydroxy-propyl}-2-hydroxy-acetamide]"
